# Like-named read-outs stand apart in the source and are kept apart here.
# Legend:
# [1] = target: T1, APN (Homo sapiens, UniProt P15144); experiment: Kinetic assay (Lineweaver–Burk) on APN; type: biochemical; conditions: for inhibition type against APN: from Kik/Kiv ratio, new decision system [27]; for Vmax value of APN, fold of non-treated group: non-treated 0.316 mU/min = 1.0-fold
# T1 construct: purchased Sigma-Aldrich
# Method: (§1) Lineweaver–Burk plots were employed to analyze the inhibition of the target enzyme. These plots were represented as 1/velocity (1/V) versus 1/substrate concentration (1/(S)) in the presence or absence of each sample (non-treated (black circle), 10 μg or 1 mM (blue circle), 20 μg or 2 mM (green circle), 50 μg or 5 mM (orange circle), and 100 μg or 10 mM (purple circle)) as an inhibitor against APN.
# (§2) These reactions were conducted in a total volume of 80 μL. by a previously described method. The Michaelis–Menten constant (Km) and maximal velocity (Vmax) were calculated using the x and y intercepts, respectively. […] Additionally, the Kik and Kiv inhibition constants were calculated using previously described methods.
# [2] = target: cGMP-specific PDE V (PDE5) (Homo sapiens, UniProt O76074); experiment: cGMP-specific PDE V (PDE5) enzyme activity assay with p-NPPPh substrate; type: biochemical; conditions: for inhibition rate of PDE5: at the highest concentration (in vitro enzyme assay); for reduction of PDE5 enzymatic activity: range over 1, 2, 5, and 10 mM
# Method: Following the addition of 10 mM p-NPPPh, the reaction mixture was incubated at 37 °C for 10 min. After the incubation period, the concentration of liberated 4-nitrophenol was determined by measuring its absorbance values at a wavelength of 405 nm using a microplate reader. […] Con, control group treated enzyme only.
# The specific substrate used for PDE5 was p-NPPPh, following a previously described method. The enzyme solution was prepared by adding 1 U of PDE5 to a volume of 10 μL in 40 mM Tris-HCl buffer at pH 7.4. The substrate solution (10 mM) was prepared by dissolving the substrate in Tris-HCl buffer at pH 7.4. […] Following the pretreatment, the reaction was initiated and allowed to continue for an additional 10 min at 37 °C upon the addition of 10 mM p-NPPPh in a total reaction volume of 80 μL. Following the incubation period, the absorbance of the mixture was measured at 405 nm using a microplate reader. The enzyme activity was quantified in units, where one unit corresponds to the amount of enzyme needed to hydrolyze 1 micromol of p-NPPPh. The inhibitory activity of PDE5 (%) was calculated by determining the residual activity (U). PDE5 inhibitory activity (%) = ([Residual unit control without sample − Residual unit control with sample]/Residual unit control without sample) × 100
# [3] = target: T2, aminopeptidase N (APN) (Homo sapiens, UniProt P15144); experiment: Aminopeptidase N (APN) enzyme activity assay with L-p-NA substrate; type: biochemical; conditions: for inhibition of APN in in vitro enzyme assay: at the highest concentration; for enzymatic activity of APN: treatment with 10 mM, without sample 0.38 U
# T2 construct: purchased Sigma-Aldrich
# T2 sequence (P15144 whole entry, species assumed): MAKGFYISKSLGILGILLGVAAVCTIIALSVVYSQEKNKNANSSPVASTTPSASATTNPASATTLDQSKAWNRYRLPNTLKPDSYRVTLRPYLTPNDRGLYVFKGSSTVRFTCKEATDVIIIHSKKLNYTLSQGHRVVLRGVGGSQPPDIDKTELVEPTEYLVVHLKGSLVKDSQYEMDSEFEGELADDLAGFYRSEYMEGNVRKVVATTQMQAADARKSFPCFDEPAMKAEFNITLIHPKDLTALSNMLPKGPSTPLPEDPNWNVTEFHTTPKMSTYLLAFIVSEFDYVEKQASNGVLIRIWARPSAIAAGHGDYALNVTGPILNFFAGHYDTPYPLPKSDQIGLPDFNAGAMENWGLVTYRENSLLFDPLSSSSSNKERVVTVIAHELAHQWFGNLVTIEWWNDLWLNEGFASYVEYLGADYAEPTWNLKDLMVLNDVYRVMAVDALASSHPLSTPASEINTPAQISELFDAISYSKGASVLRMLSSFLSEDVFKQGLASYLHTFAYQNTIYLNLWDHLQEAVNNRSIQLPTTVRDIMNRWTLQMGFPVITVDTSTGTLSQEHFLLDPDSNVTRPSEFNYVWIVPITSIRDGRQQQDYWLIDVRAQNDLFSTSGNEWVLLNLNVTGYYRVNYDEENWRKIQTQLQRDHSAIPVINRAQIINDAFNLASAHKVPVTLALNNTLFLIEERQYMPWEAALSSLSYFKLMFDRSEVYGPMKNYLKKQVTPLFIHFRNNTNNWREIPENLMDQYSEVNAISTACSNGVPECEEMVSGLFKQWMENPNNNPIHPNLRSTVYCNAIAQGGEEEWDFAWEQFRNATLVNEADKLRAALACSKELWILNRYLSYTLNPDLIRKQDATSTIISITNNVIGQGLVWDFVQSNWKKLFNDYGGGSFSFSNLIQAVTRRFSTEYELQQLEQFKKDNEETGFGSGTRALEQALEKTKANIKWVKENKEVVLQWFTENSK
# Method: Figure 2 Effects of AAE and AAE-derived compounds on APN activity. […] The reaction was started by adding 20 μL enzyme solution (1 mU) and incubated for 60 min at 37 °C. The absorbance of samples were measured at 405 nm to determine the formation of p-nitroaniline. Each value is the mean ± SD of triplicate measurements. * p < 0.05 and ** p < 0.01, compared to each control group (Con). Con, control group treated enzyme only.
# The activity of APN was determined according to Melzig et al.. Briefly, the enzyme substrate L-p-NA (2 mM) was dissolved in 50 mM N-(2-hydroxyethyl)piperazine-N’-2ethansulfonic acid (HEPES) buffer (pH 7.4) containing 154 mM NaCl. […] The reaction was started by adding 20 μL enzyme solution (approximately 1 mU in HEPES-buffer) and incubated for 60 min at 37 °C. The samples were measured spectrophotometrically at 405 nm to determine the formation of p-nitroanilmne. APN inhibitory activity (%) = ([Absorbance control without sample − Absorbance control with sample]/Absorbance control without sample) × 100
# [4] = target: PDE5 (Homo sapiens, UniProt O76074); experiment: Kinetic assay (Lineweaver–Burk) on PDE5;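 for Kcat: pure compound doses in mM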; type: biochemical; design: Vmax / Kcat: unit of the concentration uncertain; conditions: for Ki / Kik/Kiv: PDE5; for Kik/Kiv: ratio according to Yang et al. [27]; for inhibition type against PDE5: from changes of Km and 1/Vmax (Lineweaver–Burk), putative decision system [27]; for Vmax value of PDE5, fold of non-treated group / Km value of PDE5, fold of non-treated: highest concentration; for Vmax value of PDE5, fold of non-treated group: non-treated 1.039 mU/min = 1.0-fold
# Method: as §1, with “(1/[S])” for “(1/(S))”, “(orange” for “(blue”, “(silver” for “(green”, “(yellow” for “(orange”, “(blue” for “(purple”, “PDE5.” for “APN.”
# as §2
# [5] = target: T1, APN; design: method as in doi:10.1101/2021.02.26.433103; conditions: interacts with ALA474, ASP473, and SER476; cited from earlier work
# [6] = APN treated with compound 10 mM
# [7] = APN, calculated by method of ref 27, read-out: Kiv
# [8] = PDE5 treated with compound 1 (unit uncertain)
# [9] = PDE5 treated with compound 2 (unit uncertain)
# [10] = PDE5 treated with compound 5 (unit uncertain)
# [11] = PDE5 treated with compound 10 (unit uncertain)
# T1 sequence (P15144 whole entry, species assumed): as above
Structure (SMILES),Kcat ([1]; APN treated with compound 1 mM) [s⁻¹],Vmax ([1]; APN treated with compound 1 mM) [mU/min],Kcat ([1]; APN treated with compound 2 mM) [s⁻¹],Vmax ([1]; APN treated with compound 2 mM) [mU/min],Kcat ([1]; APN treated with compound 5 mM) [s⁻¹],Vmax ([1]; APN treated with compound 5 mM) [mU/min],"Kcat [1, 6] [s⁻¹]","Vmax [1, 6] [mU/min]","Ki [1, 7] [mM]","Ki ([1]; APN, read-out: Ki) [mM]",inhibition type against APN [1],"Vmax value of APN, fold of non-treated group ([1]; highest concentration) [fold]",inhibition of APN in in vitro enzyme assay [3] [%],enzymatic activity of APN [3] [U],Kik/Kiv [4],"Kcat [4, 8] [k s^−1]","Vmax [4, 8] [mU/min]","Kcat [4, 9] [k s^−1]","Vmax [4, 9] [mU/min]","Kcat [4, 10] [k s^−1]",further results
"C=CCSSSCC=C [DATS, diallyl trisulfide]",368.9 ± 7.4,0.297 ± 0.006,365.3 ± 6.2,0.294 ± 0.005,309.2 ± 5.0,0.249 ± 0.004,285.9 ± 5.0,0.230 ± 0.004,26.9,18.7,mixed-type,0.73,19,0.31 ± 0.02,17.8,7105 ± 197,0.940 ± 0.026,6757 ± 242,0.894 ± 0.032,4955 ± 174,"Ki ([1]; APN, calculated by method of ref 27, read-out: Kik): 68.5 mM; Kik/Kiv ([1]; APN, ratio according to Yang et al. [27]): 2.5; Km value of APN, fold of non-treated ([1]; highest concentration): 1.15 fold; IC50 [2]: 9.49 mM; inhibition rate of PDE5 [2]: 52%; reduction of PDE5 enzymatic activity [2]: 8.34–51.75%; Ki [4]: 7.53 mM; Vmax [4, 10]: 0.655 ± 0.023 mU/min; Kcat [4, 11]: 3371 ± 144 k s^−1; Vmax [4, 11]: 0.446 ± 0.019 mU/min; inhibition type against PDE5 [4]: noncompetitive-type; Vmax value of PDE5, fold of non-treated group [4]: 0.43 fold"
"C/C=C/[S@+]([O-])C[C@H](N)C(=O)O [IA, isoalliin]",381.3 ± 6.2,0.307 ± 0.005,331.6 ± 7.4,0.267 ± 0.006,298.9 ± 4.9,0.241 ± 0.004,275.8 ± 3.7,0.222 ± 0.003,23.7,33.1,mixed-type,0.70,26,0.28 ± 0.01,13.0,6587 ± 159,0.871 ± 0.021,5489 ± 151,0.726 ± 0.020,4387 ± 129,"IC50 [2]: 8.42 mM; inhibition rate of PDE5 [2]: 51%; reduction of PDE5 enzymatic activity [2]: 17.23–51.41%; Ki [4]: 10.8 mM; Vmax [4, 10]: 0.580 ± 0.017 mU/min; Kcat [4, 11]: 4018 ± 114 k s^−1; Vmax [4, 11]: 0.531 ± 0.015 mU/min; inhibition type against PDE5 [4]: noncompetitive-type; Vmax value of PDE5, fold of non-treated group [4]: 0.51 fold"
"C[S@+]([O-])C[C@H](N)C(=O)O [MT, methiin]",367.0 ± 3.7,0.296 ± 0.003,310.6 ± 6.2,0.250 ± 0.005,246.8 ± 3.7,0.199 ± 0.003,218.9 ± 2.5,0.176 ± 0.002,12.6,13.4,noncompetitive-type,0.56,32,0.26 ± 0.02,3.2,6261 ± 189,0.828 ± 0.025,5580 ± 159,0.738 ± 0.021,4007 ± 98,"IC50 [2]: 7.56 mM; reduction of PDE5 enzymatic activity [2]: 24.83–53.90%; Ki [4]: 21.5 mM; Vmax [4, 10]: 0.530 ± 0.013 mU/min; Kcat [4, 11]: 3673 ± 144 k s^−1; Vmax [4, 11]: 0.486 ± 0.019 mU/min; inhibition type against PDE5 [4]: uncompetitive-type; Km value of PDE5, fold of non-treated [4]: 0.74 fold; Vmax value of PDE5, fold of non-treated group [4]: 0.47 fold"
"O=c1c(O)c(-c2ccc(O)c(O)c2)oc2cc(O)cc(O)c12 [QUE, quercetin]",368.1 ± 6.2,0.297 ± 0.005,316.6 ± 7.4,0.255 ± 0.006,244.1 ± 3.7,0.197 ± 0.003,212.3 ± 2.5,0.171 ± 0.002,11.8,13.2,noncompetitive-type,0.54,33,0.25 ± 0.01,9.4,5473 ± 234,0.724 ± 0.031,5187 ± 166,0.686 ± 0.022,2893 ± 60,"interaction energy with APN (docking) [5]: -6.9 kcal/mol; IC50 [3]: > 10 mM; Vmax [4, 10]: 0.383 ± 0.008 mU/min; Kcat [4, 11]: 1478 ± 38 k s^−1; Vmax [4, 11]: 0.195 ± 0.005 mU/min; inhibition type against PDE5 [4]: uncompetitive-type; Km value of PDE5, fold of non-treated [4]: 0.69 fold; Vmax value of PDE5, fold of non-treated group [4]: 0.19 fold"
